US20240279202A1 (NURIX THERAPEUTICS, INC., priority 2021, published 2024)

What was measured:
ITK [1] = molecular target: T1, ITK (Mus musculus, UniProt Q03526); test: Mouse PD assay for ITK degradation (Western blot, splenocytes after oral administration); assay type: in vivo; conditions: percent ITK remaining in mouse splenocytes relative to vehicle, 90 mpk PO, 6 h
T1 construct: mice were sacrificed and splenocytes were isolated and used to prepare protein lysates; from tissue; host or cells: mouse splenocytes (spleen) after oral dosing
T1 sequence (Q03526 1-625): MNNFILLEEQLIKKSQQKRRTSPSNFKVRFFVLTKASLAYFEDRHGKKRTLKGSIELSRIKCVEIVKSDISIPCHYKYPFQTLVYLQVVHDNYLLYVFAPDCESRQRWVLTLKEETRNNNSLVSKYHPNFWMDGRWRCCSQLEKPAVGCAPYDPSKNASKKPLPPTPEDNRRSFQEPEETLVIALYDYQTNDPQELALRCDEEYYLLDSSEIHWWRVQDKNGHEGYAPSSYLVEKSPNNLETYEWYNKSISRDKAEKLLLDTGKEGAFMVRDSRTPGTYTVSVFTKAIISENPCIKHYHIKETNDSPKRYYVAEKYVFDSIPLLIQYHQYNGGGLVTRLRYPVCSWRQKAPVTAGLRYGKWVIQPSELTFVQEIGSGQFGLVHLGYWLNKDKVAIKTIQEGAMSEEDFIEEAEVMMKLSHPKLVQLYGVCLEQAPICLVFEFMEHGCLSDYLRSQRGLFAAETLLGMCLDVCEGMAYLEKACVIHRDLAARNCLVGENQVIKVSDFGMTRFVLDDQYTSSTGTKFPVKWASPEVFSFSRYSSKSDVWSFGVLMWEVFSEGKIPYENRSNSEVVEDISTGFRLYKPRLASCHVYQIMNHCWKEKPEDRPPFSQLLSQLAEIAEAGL
Description: Compounds 1, 3, 7, and 42 were formulated and administered at 90 mg/kg to mice by oral gavage (PO). Blood was collected at defined time points (after 1, 2, and 6 hours) after compounds administration to determine PK parameters. Concentration increased through 6 hours. Six hours later mice were sacrificed and splenocytes were isolated and used to prepare protein lysates. Total protein levels were determined in the lysates using the BCA assay according to standard methods. Equal amounts of protein were then analyzed by Western blot to determine the level of ITK expression in each sample. ITK band intensities were measured using Alpha View software and the percent of ITK remaining in each test animal was determined relative to the mean of ITK levels in vehicle control samples.
After 6 hours, splenocytes cells were harvested. ITK was evaluated by Western blotting.
Compounds 43, 4, 5, 10, 11, 12, 44, 14, 3, and 13 were administered to mice orally. After 6 hours, splenocytes cells were harvested. ITK was evaluated by Western blotting. Media was removed and cell pellets were lysed in 100 uL lysis buffer (RIPA buffer (Fisher, PI89901), cOmplete Mini EDTA-free protease inhibitor (Sigma 11836170001), Protease Inhibitor Cocktail (Sigma, P2714), Phosphatase Inhibitor Cocktail 2 and 3 (Sigma, P5726 and P0044), Benzonase (Sigma, E1014)). Cells were lysed overnight at −20° C. Following thaw, cells were centrifuged for 10 min at 13000 rpm, then transferred to new tube. Protein levels were determined by BCA Assay performed according to manufacturer's protocol (EMID Millipore, cat. no. 71285-3). Samples were combined with (4×) LDS Sample Buffer and (10×) Reducing Agent and H2O to equally load 20 ug protein per lane of a 26-well NuPAGE 4-12% Bis-Tris protein gel (1.0 mm, Thermo cat. no. NP0326). Samples were separated by running gels at constant 150 V in NuPAGE MES SDS Running Buffer. Following electrophoresis, proteins were transferred to nitrocellulose membranes using an iBlot Gel Transfer Device and iBlot Gel Transfer Stacks (Thermo cat. no. IB21001 and IB301001) and transfer method P3 (20V for 7 min). Membranes were blocked for 1 hr in 5% milk solution (TBS (0.2% Tween-20)). Following blocking, membranes were incubated with primary antibody (1:1000 CST ITK (2F12) #2380) overnight at 4° C. with gentle shaking. Blots were washed 2× in TBS (0.2% Tween-20), 30 min per wash. Following washes, blots were incubated in secondary HRP-conjugated antibody (Promega anti-Mouse IgG (H+L) HRP cat. no. W4021), 1:5000 in 5% milk solution (TBS (0.2% Tween-20)), for 1 hr at room temperature with gentle shaking. Blots were washed 2× in TBS (0.2% Tween-20), 30 min per wash. Blots were incubated with 1:1 mix of ECL reagents 1 & 2 (Amersham ECL Western Blotting Detection Reagent, cat. no. RPN2106) for 2 min at room temperature. Bands were visualized using a Protein Simple imager. Blots were then re-probed with a combination of anti-actin antibody (Sigma Monoclonal Mouse Anti-3-Actin (clone AC-15), cat. no. A5441) and secondary H1RP-conjugated antibody (Promega anti-Mouse IgG (H+L) HRP, cat. no. W4021) and similar steps were taken for incubation, wash, detection and visualization steps as above. The data was analyzed using Alpha View software. The densitometric reading for each sample band was normalized to that of the corresponding actin band per lane. Approximate % ITK remaining per sample was calculated as follows: […]
Once % ITK remaining has been calculated for each sample, groups are averaged together to show an means % ITK normalized to actin and relative to control.
Compounds 16, 17, and 18 were administered to mice orally. After 6 hours or 24 hours, splenocytes cells were harvested. ITK was evaluated by Western blotting. Plasma concentrations were determined by LC/MS/MS. Plasma samples were protein precipitated by addition of 100 μl of acetonitrile containing 50 ng/ml of internal standard. The resulting mixture was vortexed and centrifuged at 4000 RPM for 5 minutes. […]

ITK [2] = molecular target: T2, ITK (Homo sapiens, UniProt Q08881); test: ITK degradation MSD (Meso Scale Discovery) assay; assay type: cell-based; design: either human Jurkat (Clone E6-1 ATCC TIB-152) or Motl4 (ATCC CRL-1552), were plated; endogenous in cells; host or cells: Jurkat clone E6-1 (ATCC TIB-152) or Molt4 (ATCC CRL-1552); conditions: Jurkat or Molt4 cells, 4 or 6 hrs
T2 sequence (Q08881 1-620): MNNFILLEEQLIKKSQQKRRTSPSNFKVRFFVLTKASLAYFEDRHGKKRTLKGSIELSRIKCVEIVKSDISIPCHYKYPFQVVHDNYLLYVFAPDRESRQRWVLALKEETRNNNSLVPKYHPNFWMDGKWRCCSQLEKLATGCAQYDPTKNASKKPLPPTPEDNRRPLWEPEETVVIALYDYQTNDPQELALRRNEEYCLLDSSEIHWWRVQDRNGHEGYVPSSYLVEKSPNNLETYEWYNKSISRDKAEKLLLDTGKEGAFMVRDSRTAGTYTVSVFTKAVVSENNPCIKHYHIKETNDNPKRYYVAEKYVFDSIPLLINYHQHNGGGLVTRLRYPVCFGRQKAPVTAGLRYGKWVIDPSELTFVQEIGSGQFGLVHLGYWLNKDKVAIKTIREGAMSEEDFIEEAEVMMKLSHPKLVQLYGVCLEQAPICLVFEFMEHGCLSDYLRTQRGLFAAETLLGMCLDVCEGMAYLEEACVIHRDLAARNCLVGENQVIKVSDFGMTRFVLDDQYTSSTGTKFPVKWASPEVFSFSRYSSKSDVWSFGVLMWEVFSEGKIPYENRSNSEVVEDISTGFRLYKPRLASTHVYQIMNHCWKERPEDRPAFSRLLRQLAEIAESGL
Description: ITK Degradation MSD (Meso Scale Discovery) Assay Compound dilution series (7-point, 5 fold dilutions in DMSO, rows B-H with replicate in Column 1⁄2, 3⁄4, 5⁄6, 7,8, at 2000× the final required concentrations were prepared in 96 well plates (Falcon, cat. no. 353077). Row A, Column 1-8 were control DMSO. The 2000× solutions ranged from 2 mM to 128 nM (final assay concentration range 1 μM to […]). The 2000× solutions were added to cells in […], for a final DMSO concentration of 0.5% and final assay compound concentration of 1×. For the cells, either human Jurkat (Clone E6-1 ATCC TIB-152) or Motl4 (ATCC CRL-1552), were plated at 1×10^6 cells/mL, 100 μL/well ([…]) in complete RPMI (10% FBS, 1% L-glutamine). Cells were incubated for 4 or 6 hrs at 32° C./6% CO2. Following incubation, plates were centrifuged at 1200 rpm for 5 min. supernatant was removed and 50 μL of cell lysis buffer ((MSD Tris lysis buffer (R60TX), Complete Mini EDTA-free protease inhibitor (Sigma 11836170001), Protease Inhibitor Cocktail (Sigma, P2714), Phosphatase Inhibitor Cocktail 2 and 3 (Sigma, P5726 and P0044), and Benzonase (Sigma, E1014)) was added to each well. Plates were sealed and shook at 4° C. for 30 min. Plates were centrifuged and 45 μL was removed for plate assays. Assay plate preparation: Meso Scale Discovery (MSD) multi-array sm spot 96 well plates (Goat anti-Rabbit L^45-RA), were blocked with 3% BSA blocking buffer (3% Bovine Serum Albumin (Sigma A3059)+TBS 0.2% Tween-20) for 1 hr with gentle rocking at room temperature. Plates were then washed with 200 μL of 1× TBST (TBS 0.2% Tween-20) 3 times. After last wash, liquid was removed and 50 μL per well of capture antibody (abcam ITK Y402-ab32507) was added to plates at a 1:1000 dilution in blocking buffer (above). Plates were sealed and rocked at room temperature for 2 hrs. Plates were then washed 3 times with 200 μL of 1× TBST. After last wash, liquid was removed and 45 μL of cell lysate (from above) was added to each plate. Plates were sealed and rocked overnight at 4° C. Next day, cell lysates were removed, and assay plates were washed 3 times with 200 μL of 1× TBST. After last wash, liquid was removed and detection antibody (CST ITK (2F12) #2380) was added at 50 μL per well at a dilution of 1:1000 in blocking buffer. Plates were sealed and rocked at room temperature for 2 hrs. Plates were washed 3 times with 200 uL of 1× TBST. After last wash, liquid was removed, MSD Mouse anti-Rabbit sulfo tag (R32AC-1) was diluted to 1:1000 in blocking buffer. 50 μL was added to each well on the plate. Plates were sealed and incubated at room temperature for 1 hr. Plates were washed 3 times with 200 μL of 1× TBST. After last wash, liquid was removed and 150 μL of 1× MSD Read Buffer T ([…]) was then added to each well for ECL read out. For reading ECL signal, plate is read on a Meso Scale Discovery (MSD) MESO Sector S 600 plate reader. Percent ITK in then calculated as described below. Percent ITK remaining per sample was calculated as follows: [formula] Using Graphpad Prism, % ITK remaining values were plotted as a function of compound concentration. To determine DC50 and Dmax values, resulting curves were fit to the Prism curve-fitting equation “log(inhibitor) vs response-Variable slope (four parameters)” (reported best fit value IC50 used as DC50).

Row | ITK (%) 90 mpk PO, 6 h (ITK [1]) | DC50 (ITK [2]) | Dmax (ITK [2]) | Compound
1 | 66% | – | – | CN(C(=O)CC1CCN(c2ccc(C3CCC(=O)NC3=O)cn2)CC1)c1ccc2cc(-c3n[nH]c4c3C[C@@H]3C(F)(F)[C@]3(C)C4)[nH]c2c1 (stereo partly shown) [Compound 20]
2 | – | 3.8 nM | 92% | C[C@@]12Cc3[nH]nc(C(=O)Nc4cnn([C@H](c5ccccc5)C5CN(C(=O)CCOCCNc6cccc7c6C(=O)N(C6CCC(=O)NC6=O)C7=O)C5)c4)c3C[C@@H]1C2(F)F (stereo partly drawn) [Compound 27, (4aS,5aR)-N-(1-((1S)-(1-(3-(2-((2-(2,6-dioxopiperidin-3-yl)-1,3-dioxoisoindolin-4-yl)amino)ethoxy)propanoyl)azetidin-3-yl)(phenyl)methyl)-1H-pyrazol-4-yl)-5,5-difluoro-5a-methyl-1,4,4a,5,5a,6-hexahydrocyclopropafindazole-3-carboxamide]
3 | – | 3.9 nM | 94% | C[C@@]12Cc3[nH]nc(C(=O)Nc4cnn([C@H](c5ccccc5)C5CN(C(=O)CCOCCOCCOCCNc6cccc7c6C(=O)N(C6CCC(=O)NC6=O)C7=O)C5)c4)c3C[C@@H]1C2(F)F (stereo partly drawn) [Compound 28, (4aS,5aR)-N-(1-((1S)-(1-(3-(2-(2-(2-((2-(2,6-dioxopiperidin-3-yl)-1,3-dioxoisoindolin-4-yl)amino)ethoxy)ethoxy)ethoxy)propanoyl)azetidin-3-yl)(phenyl)methyl)-1H-pyrazol-4-yl)-5,5-difluoro-5a-methyl-1,4,4a,5,5a,6-hexahydrocyclopropa[f]indazole-3-carboxamide]
4 | – | 21 nM | 95% | C[C@@]12Cc3[nH]nc(C(=O)Nc4cnn([C@H](c5ccccc5)C5CN(C(=O)CCOCCOCCOCCOCCOCCNc6cccc7c6C(=O)N(C6CCC(=O)NC6=O)C7=O)C5)c4)c3C[C@@H]1C2(F)F (stereo partly drawn) [Compound 29, (4aS,5aR)-N-(1-((1S)-(1-(1-((2-(2,6-dioxopiperidin-3-yl)-1,3-dioxoisoindolin-4-yl)amino)-3,6,9,12,15-pentaoxaoctadecan-18-oyl)azetidin-3-yl)(phenyl)methyl)-1H-pyrazol-4-yl)-5,5-difluoro-5a-methyl-1,4,4a,5,5a,6-hexahydrocyclopropa[f]indazole-3-carboxamide]
